{"source": "patent US20260166162A1", "about": "“CARBON CHAIN SUBSTANCE FOR REGULATING TRANSMEMBRANE TRANSPORT AND FLUIDITY OF CELL MEMBRANES, AND PREPARATION AND USE THEREOF” (priority 2022, published 2026)", "assay_type_in_all_cases": "cell-based", "key": {"human pancreatic β-cells": {"system": "human pancreatic β-cells", "test": "Insulin secretion from human islet β cells (ELISA of supernatant)", "conditions": "6 h"}, "293T cells": {"system": "293T cells", "test": "Cellular phagocytosis of DiD-loaded lipid vesicles (nano-drugs) by 293T cells (Example II-51, Table II-29)", "conditions": "293T cells pretreated 4 h, DiD lipid vesicles 2 h, n=3, untreated control 226.46 ± 1.26"}, "[1]": {"system": "SARS-CoV-2 pseudovirus (B.1.526.2)", "conditions": "n=3"}}, "note": "Where two headings read alike, the source gives them in different places.", "data": [{"compound": "NC(CCCCNC(=O)CCCCCCCCCCCCCCCCCCC(=O)O)C(=O)O", "note": "(stereo not drawn) [Lys-eicosanedioic acid]", "values": [{"measurement": "Insulin", "setting": "human pancreatic β-cells; 2 nM", "value": 0.34, "unit": "ng/mL"}, {"measurement": "Insulin", "setting": "human pancreatic β-cells; 5 nM", "value": 0.35, "unit": "ng/mL"}, {"measurement": "Insulin", "setting": "human pancreatic β-cells; 10 nM", "value": 0.42, "unit": "ng/mL"}, {"measurement": "Insulin", "setting": "human pancreatic β-cells; 50 nM", "value": 0.48, "unit": "ng/mL"}, {"measurement": "Insulin", "setting": "human pancreatic β-cells; 50 μM", "value": 1.44, "unit": "ng/mL"}, {"measurement": "Insulin", "setting": "human pancreatic β-cells; 100 μM", "value": 1.48, "unit": "ng/mL"}]}, {"compound": "CCCCCCCCCC(=O)NCCCCC(N)C(=O)O", "note": "(stereo not drawn) [Lys-n-decanoic acid]", "values": [{"measurement": "Insulin", "setting": "human pancreatic β-cells; 2 nM", "value": 0.45, "unit": "ng/mL"}, {"measurement": "Insulin", "setting": "human pancreatic β-cells; 5 nM", "value": 0.47, "unit": "ng/mL"}, {"measurement": "Insulin", "setting": "human pancreatic β-cells; 10 nM", "value": 0.56, "unit": "ng/mL"}, {"measurement": "Insulin", "setting": "human pancreatic β-cells; 50 nM", "value": 0.60, "unit": "ng/mL"}, {"measurement": "Insulin", "setting": "human pancreatic β-cells; 50 μM", "value": 1.53, "unit": "ng/mL"}, {"measurement": "Insulin", "setting": "human pancreatic β-cells; 100 μM", "value": 1.63, "unit": "ng/mL"}]}, {"compound": "CCCC(=O)OCC(N)C(=O)O", "note": "(stereo not drawn) [Ser-n-butyric acid]", "values": [{"measurement": "Insulin", "setting": "human pancreatic β-cells; 2 nM", "value": 0.41, "unit": "ng/mL"}, {"measurement": "Insulin", "setting": "human pancreatic β-cells; 5 nM", "value": 0.39, "unit": "ng/mL"}, {"measurement": "Insulin", "setting": "human pancreatic β-cells; 10 nM", "value": 0.49, "unit": "ng/mL"}, {"measurement": "Insulin", "setting": "human pancreatic β-cells; 50 nM", "value": 0.53, "unit": "ng/mL"}, {"measurement": "Insulin", "setting": "human pancreatic β-cells; 50 μM", "value": 1.42, "unit": "ng/mL"}, {"measurement": "Insulin", "setting": "human pancreatic β-cells; 100 μM", "value": 1.51, "unit": "ng/mL"}]}, {"compound": "CCCCCCCCCCCCCCCCCC(=O)OCC(N)C(=O)O", "note": "(stereo not drawn) [Ser-stearic acid]", "values": [{"measurement": "Insulin", "setting": "human pancreatic β-cells; 2 nM", "value": 0.28, "unit": "ng/mL"}, {"measurement": "Insulin", "setting": "human pancreatic β-cells; 5 nM", "value": 0.30, "unit": "ng/mL"}, {"measurement": "Insulin", "setting": "human pancreatic β-cells; 10 nM", "value": 0.41, "unit": "ng/mL"}, {"measurement": "Insulin", "setting": "human pancreatic β-cells; 50 nM", "value": 0.48, "unit": "ng/mL"}, {"measurement": "Insulin", "setting": "human pancreatic β-cells; 50 μM", "value": 1.38, "unit": "ng/mL"}, {"measurement": "Insulin", "setting": "human pancreatic β-cells; 100 μM", "value": 1.41, "unit": "ng/mL"}]}, {"compound": "CCCCCC(=O)OC(C)C(N)C(=O)O", "note": "(stereo not drawn) [Thr-n-hexanoic acid]", "values": [{"measurement": "Insulin", "setting": "human pancreatic β-cells; 2 nM", "value": 0.38, "unit": "ng/mL"}, {"measurement": "Insulin", "setting": "human pancreatic β-cells; 5 nM", "value": 0.37, "unit": "ng/mL"}, {"measurement": "Insulin", "setting": "human pancreatic β-cells; 10 nM", "value": 0.47, "unit": "ng/mL"}, {"measurement": "Insulin", "setting": "human pancreatic β-cells; 50 nM", "value": 0.54, "unit": "ng/mL"}, {"measurement": "Insulin", "setting": "human pancreatic β-cells; 50 μM", "value": 1.41, "unit": "ng/mL"}, {"measurement": "Insulin", "setting": "human pancreatic β-cells; 100 μM", "value": 1.46, "unit": "ng/mL"}]}, {"compound": "CCCCCC=CCC=CCCCCCCCC(=O)OC(C)C(N)C(=O)O", "note": "(stereo not drawn) [Threonine-LA]", "values": [{"measurement": "Fluorescence intensity", "setting": "293T cells; 2 nM", "value": "100.46 ± 4.23"}, {"measurement": "Fluorescence intensity", "setting": "293T cells; 5 nM", "value": "64.18 ± 0.47"}, {"measurement": "Fluorescence intensity", "setting": "293T cells; 10 nM", "value": "43.39 ± 0.55"}, {"measurement": "Fluorescence intensity", "setting": "293T cells; 50 nM", "value": "45.68 ± 0.23"}, {"measurement": "Fluorescence intensity", "setting": "293T cells; 100 nM", "value": "54.37 ± 0.63"}, {"measurement": "Fluorescence intensity", "setting": "293T cells; 1 uM", "value": "412.90 ± 0.43"}, {"measurement": "Fluorescence intensity", "setting": "293T cells; 10 uM", "value": "507.63 ± 0.23"}, {"measurement": "Fluorescence intensity", "setting": "293T cells; 50 uM", "value": "64.86 ± 0.19"}, {"measurement": "Fluorescence intensity", "setting": "293T cells; 100 uM", "value": "27.22 ± 0.16"}, {"measurement": "Inhibition rate (%)", "setting": "[1]; 2 nM", "value": "55.64 ± 1.68", "unit": "%"}, {"measurement": "Inhibition rate (%)", "setting": "[1]; 5 nM", "value": "71.66 ± 2.98", "unit": "%"}, {"measurement": "Inhibition rate (%)", "setting": "[1]; 10 nM", "value": "80.84 ± 4.59", "unit": "%"}, {"measurement": "Inhibition rate (%)", "setting": "[1]; 50 nM", "value": "79.83 ± 8.55", "unit": "%"}, {"measurement": "Inhibition rate (%)", "setting": "[1]; 100 nM", "value": "75.99 ± 2.66", "unit": "%"}, {"measurement": "Inhibition rate (%)", "setting": "[1]; 1 μM", "value": "-82.33 ± 0.87", "unit": "%"}, {"measurement": "Inhibition rate (%)", "setting": "[1]; 10 μM", "value": "-124.16 ± 0.47", "unit": "%"}, {"measurement": "Inhibition rate (%)", "setting": "[1]; 50 μM", "value": "71.36 ± 0.48", "unit": "%"}, {"measurement": "Inhibition rate (%)", "setting": "[1]; 100 μM", "value": "87.98 ± 0.55", "unit": "%"}]}, {"compound": "Adenosine monophosphate-lauroic acid", "values": [{"measurement": "Insulin", "setting": "human pancreatic β-cells; 2 nM", "value": 0.37, "unit": "ng/mL"}, {"measurement": "Insulin", "setting": "human pancreatic β-cells; 5 nM", "value": 0.38, "unit": "ng/mL"}, {"measurement": "Insulin", "setting": "human pancreatic β-cells; 10 nM", "value": 0.43, "unit": "ng/mL"}, {"measurement": "Insulin", "setting": "human pancreatic β-cells; 50 nM", "value": 0.49, "unit": "ng/mL"}, {"measurement": "Insulin", "setting": "human pancreatic β-cells; 50 μM", "value": 1.49, "unit": "ng/mL"}, {"measurement": "Insulin", "setting": "human pancreatic β-cells; 100 μM", "value": 1.53, "unit": "ng/mL"}]}, {"compound": "Glucose-docosanedioic acid", "values": [{"measurement": "Insulin", "setting": "human pancreatic β-cells; 2 nM", "value": 0.25, "unit": "ng/mL"}, {"measurement": "Insulin", "setting": "human pancreatic β-cells; 5 nM", "value": 0.27, "unit": "ng/mL"}, {"measurement": "Insulin", "setting": "human pancreatic β-cells; 10 nM", "value": 0.41, "unit": "ng/mL"}, {"measurement": "Insulin", "setting": "human pancreatic β-cells; 50 nM", "value": 0.50, "unit": "ng/mL"}, {"measurement": "Insulin", "setting": "human pancreatic β-cells; 50 μM", "value": 1.41, "unit": "ng/mL"}, {"measurement": "Insulin", "setting": "human pancreatic β-cells; 100 μM", "value": 1.46, "unit": "ng/mL"}]}, {"compound": "Glucose-pentadecanedioic acid", "values": [{"measurement": "Insulin", "setting": "human pancreatic β-cells; 2 nM", "value": 0.22, "unit": "ng/mL"}, {"measurement": "Insulin", "setting": "human pancreatic β-cells; 5 nM", "value": 0.23, "unit": "ng/mL"}, {"measurement": "Insulin", "setting": "human pancreatic β-cells; 10 nM", "value": 0.36, "unit": "ng/mL"}, {"measurement": "Insulin", "setting": "human pancreatic β-cells; 50 nM", "value": 0.43, "unit": "ng/mL"}, {"measurement": "Insulin", "setting": "human pancreatic β-cells; 50 μM", "value": 1.48, "unit": "ng/mL"}, {"measurement": "Insulin", "setting": "human pancreatic β-cells; 100 μM", "value": 1.52, "unit": "ng/mL"}]}]}
